Here are results for 17 compounds from patent US9540361B2, “N-substituted azetidine derivatives” (Merck Sharp & Dohme B.V., priority 2010, dated 2017).

One assay concerns MCF-7H cells. Briefly: 7-day in vitro proliferation assay in tamoxifen-resistant MCF-7H breast cancer cells (methyl-3H-thymidine incorporation). The format is cell-based, human. The following applies: MCF-7H; for Efficacy (fractional to E2): fraction of maximal response, E2 = 1.00 per definition; for % E2: relative potency to induce proliferation, normalized against E2 (=100 per definition). How it is done:
To what extent compounds are capable of stimulating proliferation in ER-positive, tamoxifen-resistant breast cancer cells is tested in a 7-day in vitro proliferation assay using MCF-7H cells. More specifically, this in vitro bioassay is used to determine the efficacy (fraction of maximal response), pEC50, and relative potency of the compound to induce proliferation by comparing the data for this compound with those of the reference compound 17β-estradiol (E2) in the same test.
(§1) A more detailed description of the method used is as follows.
Cell culture: The human epithelial breast cancer cell line MCF-7H (origin: Hubrecht Laboratory, Utrecht, The Netherlands) was routinely maintained in complete medium which is a 1:1 mixture of Ham's F12 medium and Dulbecco's Modified Eagle Medium (DMEM; Invitrogen, Carlsbad, USA) without phenol red and enriched with 5% fetal calf serum (FCS; Hyclone, Utah, USA), 100 μg/ml streptomycin and 100 units/ml penicillin adapted to contain:
Cells were grown in 80 cm^2 culture flasks (Nunc, Roskilde, Denmark) and kept in an atmosphere of 5% CO2-95% air at 37 degrees Celsius. Cells were subcultured when they reached about 80-90% confluence, resulting in one passage a week. Subculturing includes detaching the cells using trypsin/EDTA and diluting the cell suspension 10 times.
Methyl-^3H-thymidine incorporation assay: MCF-7H cells were starved overnight in assay medium containing 5% charcoal-treated (CT) bovine calf serum (BCS; Hyclone) instead of FCS and a final concentration of 1.0 μg/ml bovine insulin, the day before plating. Cells were plated in assay medium containing 5% CT BCS, in white 24-wells plates (Perkin Elmer, Shelton, USA), at a density of 7.5×10^3 cells per well, each well containing 630 μL assay medium. Cells were allowed to attach and spread for 24 h before stimulation with reference and/or test compound(s). After a stimulation period of 7 days, 0.25 μCi/well of methyl-^3H-thymidine (GE Healthcare Limited, Buckinghamshire, UK) was added per well. Cultures were maintained in an atmosphere of 5% CO2-95% air at 37 degrees Celsius. After overnight incubation, excess methyl-^3H-thymidine was aspirated and the cells were washed with phosphate-buffered saline (PBS). After 1 h of incubation with 1 ml scintillation fluid Microscint-20 (Perkin Elmer), radioactivity was measured in a Packard TOP-count NXT microplate scintillation counter (Perkin Elmer).

The next assay deals with T1, estrogen receptor alpha (Homo sapiens, UniProt P03372).
T1 construct: endogenous in cells; host or cells: T47D human breast cancer cells (ATCC)
T1 sequence (P03372 1-595): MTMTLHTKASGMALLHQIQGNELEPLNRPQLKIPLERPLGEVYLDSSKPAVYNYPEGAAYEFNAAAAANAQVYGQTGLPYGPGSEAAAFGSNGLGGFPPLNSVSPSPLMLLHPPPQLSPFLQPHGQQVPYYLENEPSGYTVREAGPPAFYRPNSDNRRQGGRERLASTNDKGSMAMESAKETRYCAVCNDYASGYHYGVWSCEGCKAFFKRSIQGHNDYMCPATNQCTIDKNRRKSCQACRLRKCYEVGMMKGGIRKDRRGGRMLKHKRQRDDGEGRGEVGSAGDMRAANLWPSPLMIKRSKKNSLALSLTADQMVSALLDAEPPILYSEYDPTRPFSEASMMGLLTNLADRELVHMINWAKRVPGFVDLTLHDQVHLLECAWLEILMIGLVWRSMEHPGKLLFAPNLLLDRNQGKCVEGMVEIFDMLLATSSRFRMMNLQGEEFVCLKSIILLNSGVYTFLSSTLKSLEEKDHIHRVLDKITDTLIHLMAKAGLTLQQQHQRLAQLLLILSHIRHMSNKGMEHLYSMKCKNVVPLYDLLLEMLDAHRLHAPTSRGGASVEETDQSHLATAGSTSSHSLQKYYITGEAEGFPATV
The experiment in a line: ERα downregulation assay in T47D breast cancer cells (ERα ELISA). The format is cell-based. The following applies: downregulation of ERα relative to fulvestrant (100%), 1E-5 M, 24 hours, negative = upregulation.
From the text: More specifically, this in vitro bioassay is used to determine the efficacy (fraction of maximal response) of the compound by comparing the data for this compound with those of the reference compound ICI 182,780 (fulvestrant) in the same test (downregulation of fulvestrant is 100% by definition).
as §1
Cell culture. The human epithelial breast cancer cell line T47D (origin: ATCC) was routinely maintained in a 1:1 mixture of Ham's F12 medium and Dulbecco's Modified Eagle Medium (Gibco) enriched with 5% fetal calf serum (Hyclone), 10 mM HEPES pH 7.5 and 100 μg/ml penicillin-streptomycin solution. Cells were grown in 80 cm2 culture flasks (Nunc, Roskilde, Denmark) and kept in an atmosphere of 5% CO2-95% air at 37 degrees Celsius. Cells were subcultured when they reached about 80-90% confluence, resulting in one passage a week. Subculturing includes detaching the cells using Cell Dissociation Buffer [Sigma] and subsequent inoculation at 1:5 or 1:10 in a new Roux flask (175 cc) and\or plating out in Nunclon™ Surface 96 wells microplates. The culture medium needs to be refreshed on day three or four of the incubation, if applicable.
Determination of ERα protein levels: T47D cells in the microplates are incubated with 1E-5 M test compound for 24 hours. The supernatant in all wells is carefully aspirated. Cells are lysed on the microplate and cell lysates are probed for ERα content using an ERα ELISA assay kit (Active Motif).
(In an ELISA, binding on a coated surface is turned into a signal by an enzyme label.)

Assay [1] has as its target T2, human estrogen receptor α (hERα) (Homo sapiens, UniProt P03372).
T2 sequence (P03372 1-595): T1 sequence (P03372 1-595)
The experiment in a line: antagonistic activity in CHO cells co-transfected with hERα, rat oxytocin promoter and luciferase reporter gene. The format is cell-based. To be noted: antagonism of 17β-estradiol-induced transactivation, CHO-hERα-RO-LUC; read-out: ERα pIC50 (converted). The procedure: The antagonistic activity of compounds on the estrogen receptors was determined in an in vitro bioassay with recombinant Chinese Hamster Ovary (CHO) cells stably co-transfected with the human estrogen receptor α (hERα), the rat oxytocin promoter (RO) and the luciferase reporter gene (LUC). […] The antagonistic efficacy, i.e. the amount of maximal inhibition of the 17β-estradiol activated receptor by a compound, is expressed as fraction relative to the maximal inhibition as induced by the standard anti-estrogen ICI 164,384 (efficacy test compound=(maximal inhibition test compound/maximal inhibition ICI 164,384)). A more detailed description of the methodology can be found in De Gooyer et al., Steroids, 68 (2003) 21-30.
(In general: In a reporter assay the amount or activity of a reporter protein is the signal.)

Take `CC/C(=C(\c1ccc(O)cc1)c1ccc(OCCN(C)C)cc1)c1ccccc1` [4OHT, 4-OH-tamoxifen]: in the assay with MCF-7H cells, the “Efficacy (fractional to E2)” value was 0.49 and the “% E2” value is listed as 2.3%.
`COc1ccc(-c2sc3cc(O)ccc3c2Oc2ccc(OCCN3CCCCC3)cc2)cc1` [Arzoxifene]: in the assay on MCF-7H cells, the “Efficacy (fractional to E2)” value was 0.34 and the “% E2” value was determined as 99.1%.
Take `CC/C(=C(/c1ccc(OCCN(C)C)cc1)c1cccc(O)c1)c1ccccc1` [Droloxifene]: in the assay on MCF-7H cells, the “Efficacy (fractional to E2)” value is listed as 0.38 and the “% E2” value was 5.9%.
For the compound `O=C(O)C(F)(F)F.O=C(c1ccc(OC2CN(C3CC3)C2)cc1)c1c(-c2ccc(O)cc2)sc2cc(O)ccc12` [compound 7i, (4-(1-cyclopropylazetidin-3-yloxy)phenyl)(6-hydroxy-2-(4-hydroxyphenyl)-benzo[b]thiophen-3-yl)methanone 2,2,2-trifluoroacetate], the “DR (%)” value at estrogen receptor alpha is reported as 66%. In assay [1], the IC50 is 2.51 nM.
Taken in the same sequence, the figures for `O=C(O)C(F)(F)F.O=C(c1ccc(OC2CN(CCCF)C2)cc1)c1c(-c2ccc(O)cc2)sc2cc(O)ccc12` [compound 7j, (4-(1-(3-fluoropropyl)azetidin-3-yloxy)phenyl)(6-hydroxy-2-(4-hydroxyphenyl)benzo[b]thiophen-3-yl)methanone 2,2,2-trifluoroacetate] were 98% and 2.51 nM.
For the compound `COCCCN1CC(Oc2ccc(C(=O)c3c(-c4ccc(O)cc4)sc4cc(O)ccc34)cc2)C1.O=C(O)C(F)(F)F` [compound 7k, (6-hydroxy-2-(4-hydroxyphenyl)benzo[b]thiophen-3-yl)(4-(1-(3-methoxypropyl)azetidin-3-yloxy)phenyl)methanone 2,2,2-trifluoroacetate], the “DR (%)” value on estrogen receptor alpha amounted to 57%. The IC50 in assay [1] was 2 nM.
In the case of `Cl.O=C(c1ccc(OC2CN(C3CCC3)C2)cc1)c1c(-c2ccc(O)cc2)sc2cc(O)ccc12` [compound 7l, (4-(1-cyclobutylazetidin-3-yloxy)phenyl)(6-hydroxy-2-(4-hydroxyphenyl)-benzo[b]thiophen-3-yl)methanone hydrochloride], the “DR (%)” value on estrogen receptor alpha was 30%. Further, the IC50 in assay [1] was 0.794 nM.
Consider `CC(C)CN1CC(Oc2ccc(C(=O)c3c(-c4ccc(O)cc4)sc4cc(O)ccc34)cc2)C1.Cl` [compound 7m, (6-hydroxy-2-(4-hydroxyphenyl)benzo[b]thiophen-3-yl)(4-(1-isobutylazetidin-3-yloxy)phenyl)methanone hydrochloride], for which, on estrogen receptor alpha, the “DR (%)” value turned out to be 73%. In addition, the IC50 in assay [1] is 1 nM.
For `Cl.O=C(c1ccc(OC2CN(CC3CCC3)C2)cc1)c1c(-c2ccc(O)cc2)sc2cc(O)ccc12` [compound 7n, (4-(1-(cyclobutylmethyl)azetidin-3-yloxy)phenyl)(6-hydroxy-2-(4-hydroxyphenyl)benzo[b]thiophen-3-yl)methanone hydrochloride] the same measures were 77% and 1.26 nM.
Turning to `Cl.O=C(c1ccc(OC2CN(CC3CCOC3)C2)cc1)c1c(-c2ccc(O)cc2)sc2cc(O)ccc12` (stereo not shown) [compound 7o, (6-hydroxy-2-(4-hydroxyphenyl)benzo[b]thiophen-3-yl)(4-(1-((tetrahydrofuran-3-yl)methyl)azetidin-3-yloxy)phenyl)methanone hydrochloride], the “DR (%)” value on estrogen receptor alpha is 73%. Also, in assay [1], the IC50 was 5.01 nM.
Consider `Cl.O=C(c1ccc(OC2CN(CCC(F)(F)F)C2)cc1)c1c(-c2ccc(O)cc2)sc2cc(O)ccc12` [compound 7p, (6-hydroxy-2-(4-hydroxyphenyl)benzo[b]thiophen-3-yl)(4-(1-(3,3,3-trifluoropropyl)azetidin-3-yloxy)phenyl)methanone hydrochloride], for which, on estrogen receptor alpha, the “DR (%)” value is listed as 35%. Moreover, the IC50 in assay [1] is 5.01 nM.
As for `CCCN1CC(Oc2ccc(C(=O)c3c(-c4ccc(O)cc4C)sc4cc(O)ccc34)cc2)C1.Cl` [compound 7q, (6-hydroxy-2-(4-hydroxy-2-methylphenyl)benzo[b]thiophen-3-yl)(4-(1-propylazetidin-3-yloxy)phenyl)methanone hydrochloride], the “DR (%)” value at estrogen receptor alpha is 64%. Further, in assay [1], the IC50 is 1.26 nM.
For `CCCN1CC(Oc2ccc(C(=O)c3c(-c4ccc(O)c(C)c4)sc4cc(O)ccc34)cc2)C1.Cl` [compound 7r, (6-hydroxy-2-(4-hydroxy-3-methylphenyl)benzo[b]thiophen-3-yl)(4-(1-propylazetidin-3-yloxy)phenyl)methanone hydrochloride] the same measures were 94% and 2 nM.
Consider `CCCN1CC(Oc2ccc(C(=O)c3c(-c4ccc(F)c(C)c4)sc4cc(O)ccc34)cc2)C1.Cl` [compound 7s, (2-(4-fluoro-3-methylphenyl)-6-hydroxybenzo[b]thiophen-3-yl)(4-(1-propylazetidin-3-yloxy)phenyl)methanone hydrochloride], for which the “DR (%)” value on estrogen receptor alpha turned out to be 101%. In assay [1], the IC50 is 5.01 nM.
For `CCCN1CC(Oc2ccc(C(=O)c3c(-c4cc(F)cc(F)c4)sc4cc(O)ccc34)cc2)C1.Cl` [compound 7t, (2-(3,5-difluorophenyl)-6-hydroxybenzo[b]thiophen-3-yl)(4-(1-propylazetidin-3-yloxy)phenyl)methanone hydrochloride] the same measures were 98% and 2 nM.
As for `CCCN1CC(Oc2ccc(C(=O)c3c(-c4ccc(O)cc4)sc4cc(O)ccc34)cc2F)C1.Cl` [compound 7u, (3-fluoro-4-(1-propylazetidin-3-yloxy)phenyl)(6-hydroxy-2-(4-hydroxyphenyl)-benzo[b]thiophen-3-yl)methanone hydrochloride], the “DR (%)” value at estrogen receptor alpha worked out at 78%. Further, the IC50 in assay [1] was 0.794 nM.
Taken in the same sequence, the figures for `Cl.Oc1ccc(-c2onc(-c3ccccc3Cl)c2-c2ccc(OC3CN(CC4CCOC4)C3)cc2)cc1` (stereo not shown) [compound 7x, 4-(3-(2-chlorophenyl)-4-(4-(1-((tetrahydrofuran-3-yl)methyl)azetidin-3-yloxy)-phenyl)isoxazol-5-yl)phenol hydrochloride] were 66% and 0.501 nM.
